The source of these data is ChEMBL document CHEMBL5137080, “Discovery of Novel 7-Hydroxy-5-oxo-4,5-dihydrothieno[3,2-b]pyridine-6-carboxamide Derivatives with Potent and Selective Antifungal Activity against Cryptococcus Species” (J Med Chem, 2022).

Data set [1] concerns Cryptococcus neoformans. Nature of the data set: Synergistic antifungal activity against Cryptococcus neoformans clinical isolate 443 assessed as fractional inhibitory concentration index incubated for 72 hrs in presence of P163-0892 by broth microdilution method. Format: functional. (Dilution methods test growth across graded concentrations, often in twofold steps.)
Data set [2] relates to Cryptococcus neoformans. Nature of the data set: Antifungal activity against Cryptococcus neoformans clinical isolate HN17 assessed as fungal growth inhibition incubated for 72 hrs in presence of P163-0892 by broth microdilution method. The class given is functional.
Data set [3] relates to Candida albicans. Description: Synergistic antifungal activity against Candida albicans SC5314 assessed as fractional inhibitory concentration index incubated for 48 hrs in presence of P163-0892 by broth microdilution method. Format: functional.
Data set [4] has as its system Candida parapsilosis. Description: Synergistic antifungal activity against Candida parapsilosis ATCC22019 assessed as fractional inhibitory concentration index incubated for 48 hrs in presence of P163-0892 by broth microdilution method. The class given is functional.
For data set [5], the system named is Cryptococcus neoformans. Nature of the data set: Antifungal activity against Cryptococcus neoformans clinical isolate HN2-40 assessed as fungal growth inhibition incubated for 72 hrs in presence of P163-0892 by broth microdilution method. Format: functional.
In data set [6] the test system is Cryptococcus neoformans. Nature of the data set: Antifungal activity against Cryptococcus neoformans H99 assessed as fungal growth inhibition incubated for 72 hrs in presence of P163-0892 by broth microdilution method. The class given is functional.
In data set [7] the test system is Cryptococcus neoformans. Description: Antifungal activity against Cryptococcus neoformans clinical isolate 443 assessed as fungal growth inhibition incubated for 72 hrs in presence of P163-0892 by broth microdilution method. The class given is functional.
In data set [8] the test system is Nakaseomyces glabratus. Nature of the data set: Antifungal activity against Candida glabrata ATCC1182 assessed as fungal growth inhibition incubated for 48 hrs in presence of P163-0892 by broth microdilution method. The class given is functional.
Data set [9] has as its system Cryptococcus gattii species complex. Nature of the data set: Synergistic antifungal activity against Cryptococcus gattii E566 assessed as fractional inhibitory concentration index incubated for 72 hrs in presence of P163-0892 by broth microdilution method. The class given is functional.
Data set [10] deals with [Candida] auris. Description: Antifungal activity against Candida auris CBS 12372 assessed as fungal growth inhibition incubated for 48 hrs in presence of P163-0892 by broth microdilution method. As to conditions: Candidozyma auris. Format: functional.
Data set [11] relates to [Candida] auris. Description: Synergistic antifungal activity against Candida auris CBS 12372 assessed as fractional inhibitory concentration index incubated for 48 hrs in presence of P163-0892 by broth microdilution method. Format: functional, Candidozyma auris.
In data set [12] the test system is Cryptococcus neoformans. Description: Synergistic antifungal activity against Cryptococcus neoformans clinical isolate HN17 assessed as fractional inhibitory concentration index incubated for 72 hrs in presence of P163-0892 by broth microdilution method. Format: functional.
Data set [13] deals with Cryptococcus neoformans. Description: Antifungal activity against Cryptococcus neoformans clinical isolate HN19 assessed as fungal growth inhibition incubated for 72 hrs in presence of P163-0892 by broth microdilution method. Format: functional.
In data set [14] the test system is Cryptococcus neoformans. Description: Antifungal activity against Cryptococcus neoformans clinical isolate HN15 assessed as fungal growth inhibition incubated for 72 hrs in presence of P163-0892 by broth microdilution method. Format: functional.
In data set [15] the test system is Cryptococcus neoformans. Nature of the data set: Antifungal activity against Cryptococcus neoformans clinical isolate SH68 assessed as fungal growth inhibition incubated for 72 hrs in presence of P163-0892 by broth microdilution method. Format: functional.
Data set [16] deals with Cryptococcus neoformans. Description: Antifungal activity against Cryptococcus neoformans clinical isolate HN2 assessed as fungal growth inhibition incubated for 72 hrs in presence of P163-0892 by broth microdilution method. Format: functional.
The subject of data set [17] is Pichia kudriavzevii. Nature of the data set: Antifungal activity against Candida krusei ATCC2340 assessed as fungal growth inhibition incubated for 48 hrs in presence of P163-0892 by broth microdilution method. The class given is functional.
For data set [18], the system named is Cryptococcus neoformans. Description: Antifungal activity against Cryptococcus neoformans clinical isolate 445 assessed as fungal growth inhibition incubated for 72 hrs in presence of P163-0892 by broth microdilution method. The class given is functional.
The test system of data set [19] is Cryptococcus gattii. Description: Antifungal activity against Cryptococcus gattii WM179 assessed as fungal growth inhibition incubated for 72 hrs in presence of P163-0892 by broth microdilution method. Format: functional, Cryptococcus gattii species complex.
Data set [20] is described as follows: Volume of distribution at steady state in Sprague-Dawley rat at 2 mg/kg,iv by LC-MS/MS analysis. The class given is ADME, organism-based. To be noted: in vivo.
Data set [21] is described as follows: AUC (0 to infinitive) in Sprague-Dawley rat at 2 mg/kg,iv by LC-MS/MS analysis. As to conditions: in vivo. Further details: time infinity, dose 2 mg/kg, route iv. The class given is ADME, organism-based.
Data set [22] relates to Cryptococcus neoformans. Nature of the data set: Antifungal activity against Cryptococcus neoformans clinical isolate HN1 assessed as fungal growth inhibition incubated for 72 hrs in presence of Fluconazole by broth microdilution method. Format: functional.
Data set [23] concerns Cryptococcus neoformans. Nature of the data set: Antifungal activity against Cryptococcus neoformans clinical isolate HN15 assessed as fungal growth inhibition incubated for 72 hrs in presence of Fluconazole by broth microdilution method. The class given is functional.
Data set [24] deals with Cryptococcus neoformans. Nature of the data set: Antifungal activity against Cryptococcus neoformans clinical isolate HN2-40 assessed as fungal growth inhibition incubated for 72 hrs in presence of Fluconazole by broth microdilution method. Format: functional.
The test system of data set [25] is Candida parapsilosis. Nature of the data set: Antifungal activity against Candida parapsilosis ATCC22019 assessed as fungal growth inhibition incubated for 48 hrs by broth microdilution method. To be noted: Lodderomyces parapsilosis. Format: functional.
Data set [26] concerns Cryptococcus deuterogattii. Nature of the data set: Antifungal activity against Cryptococcus gattii WM178 assessed as fungal growth inhibition incubated for 72 hrs in presence of Fluconazole by broth microdilution method. The class given is functional, Cryptococcus gattii species complex.
The test system of data set [27] is Cryptococcus neoformans. Description: Synergistic antifungal activity against Cryptococcus neoformans clinical isolate HN15 assessed as fractional inhibitory concentration index incubated for 72 hrs in presence of Fluconazole by broth microdilution method. Format: functional.
For data set [28], the system named is Cryptococcus deuterogattii. Nature of the data set: Antifungal activity against Cryptococcus gattii WM178 assessed as reduction on fungal growth at 2 ug/ml incubated for 48 hrs by plate reader assay. Further details: scale not given: the % may be the effect or the level left. Format: functional, Cryptococcus gattii species complex. As to conditions: dose 2 µg/ml.

Data set [29] relates to Cryptococcus neoformans. Description: Synergistic antifungal activity against Cryptococcus neoformans clinical isolate SH68 assessed as fractional inhibitory concentration index incubated for 72 hrs in presence of Fluconazole by broth microdilution method. Format: functional.
The subject of data set [30] is Candida tropicalis. Description: Synergistic antifungal activity against Candida tropicalis ATCC20026 assessed as fractional inhibitory concentration index incubated for 48 hrs in presence of Fluconazole by broth microdilution method. The class given is functional.
Data set [31] concerns Nakaseomyces glabratus. Nature of the data set: Synergistic antifungal activity against Candida glabrata ATCC1182 assessed as fractional inhibitory concentration index incubated for 48 hrs in presence of Fluconazole by broth microdilution method. Format: functional.
Data set [32] can be described thus: Selectivity index, ratio of IC50 for rabbit RBC to MIC for antifungal activity against Cryptococcus neoformans. The class given is toxicity. To be noted: red blood cells, read-out: Selectivity Index.
In data set [33] the test system is Cryptococcus gattii species complex. Nature of the data set: Antifungal activity against Cryptococcus gattii clinical isolate SCZ20024 assessed as fungal growth inhibition incubated for 72 hrs in presence of Fluconazole by broth microdilution method. The class given is functional.
The nature of data set [34]: Selectivity index, ratio of IC50 for human HUVEC to MIC for antifungal activity against Cryptococcus neoformans. Format: toxicity. As to conditions: HUVEC cells, read-out: Selectivity Index.
Data set [35] deals with Candida parapsilosis. Description: Antifungal activity against Candida parapsilosis ATCC22019 assessed as fungal growth inhibition incubated for 48 hrs in presence of Fluconazole by broth microdilution method. As to conditions: Lodderomyces parapsilosis. The class given is functional.
Data set [36] deals with Pichia kudriavzevii. Description: Synergistic antifungal activity against Candida krusei ATCC2340 assessed as fractional inhibitory concentration index incubated for 48 hrs in presence of Fluconazole by broth microdilution method. Format: functional.
For data set [37], the system named is Cryptococcus neoformans. Nature of the data set: Antifungal activity against Cryptococcus neoformans clinical isolate 445 assessed as fungal growth inhibition incubated for 72 hrs in presence of Fluconazole by broth microdilution method. The class given is functional.
The nature of data set [38]: MRT (0 to t) in Sprague-Dawley rat at 2 mg/kg,iv by LC-MS/MS analysis. Format: ADME, organism-based. As to conditions: in vivo.
The subject of data set [39] is Cryptococcus gattii. Nature of the data set: Antifungal activity against Cryptococcus gattii WM179 assessed as fungal growth inhibition incubated for 72 hrs in presence of Fluconazole by broth microdilution method. Format: functional, Cryptococcus gattii species complex.

Bounds are passed on as bounds.

For `OC(Cn1cncn1)(Cn1cncn1)c1ccc(F)cc1F` [FLUCONAZOLE], the “fractional inhibitory concentration index (FICI)” value in data set [1] is on record as 0.156; in [3] it was 1.008; in data set [4], 0.625; in data set [9] it was 0.188; in data set [11], 1.008; in [12] it was 0.156. Besides, the minimum inhibitory concentration (MIC) (usually the lowest concentration found to suppress growth) is 0.5 µg/mL in data set [2]; 0.125 µg/mL in data set [5]; 2 µg/mL in [6]; 1 µg/mL in [7]; 4 µg/mL in data set [8]; > 64 µg/mL in [10]. Further, the MIC was 1 µg/mL in [13]; 1 µg/mL in data set [14]; 1 µg/mL in data set [15]; 0.25 µg/mL in data set [16]; 32 µg/mL in data set [17]; 2 µg/mL in data set [18]. In addition, the MIC in data set [19] came to 0.5 µg/mL.
Consider `CCCCNC(=O)c1c(O)c2sccc2n(Cc2ccccc2)c1=O`, for which the distribution volume (Vdss) (in general, a proportionality between amount in the body and measured concentration, not a real space) in [20] was 7.12 L/kg. Also, the AUC (usually concentration integrated over time) in data set [21] was 749 ng·h/mL. For the same molecule, the MIC was 0.0313 µg/mL in data set [22]; 0.0625 µg/mL in data set [23]; 0.0313 µg/mL in data set [24]; > 64 µg/mL in data set [25]; 0.0625 µg/mL in data set [26]; 0.0313 µg/mL in data set [33]. In addition, the MIC was found to be 16 µg/mL in [35], 0.125 µg/mL in data set [37] and 0.0625 µg/mL in data set [39]. Further, the “fractional inhibitory concentration index (FICI)” value amounted to 0.313 in [27]; 0.25 in data set [29]; 0.516 in data set [30]; 0.625 in data set [31]; 0.563 in data set [36]. For the same molecule, in [28], the Activity is given as 45.5%. For the same molecule, the selectivity ratio in [32] and in data set [34] was > 256 throughout. In data set [38], the “MRT(t)” value amounted to 2.63 h.
